Earlier results, collected in patent publication US20180014537A1, “NOVEL COMPOSITIONS AND METHODS FOR CONTROLLING SOIL BORNE PATHOGENS OF AGRICULTURAL CROPS” (ADJUVANTS UNLIMITED LLC, priority 2015, published 2018).

Tests used:
[1] = in vivo
Meloidogyne incognita = conditions: 3.2 uL per liter as a soil drench
[2] = soil drench
tomato seedlings = conditions: at 24 hours, equivalent concentrations

Row | SMILES | less phytotoxic than the parent pelargonic acid [1] [fold] | control of Meloidogyne incognita (Meloidogyne incognita) | concentration above which significant phytotoxicity occurred [2] | mortality of seedling (tomato seedlings) [%]
1 | CCCCCCCCC(=O)OC [PAME, pelargonic acid methyl ester] | 40 | good control | exceeded 4.8 uL per liter | 100
2 | CCCCCC[C@@H](O)C/C=C\CCCCCCCC(=O)OC [ricinoleic acid methyl ester] |  |  |  | 0
